These results are taken from article PMC11995831, “Synthesis of Novel Isoindolinones: Carbonic Anhydrase Inhibition Profiles, Antioxidant Potential, Antimicrobial Effect, Cytotoxicity and Anticancer Activity” (Journal of Biochemical and Molecular Toxicology, 2025).

One may read the IC50 as the concentration that gives 50% inhibition. One may read the Ki as a dissociation constant, usually derived from enzyme kinetics or from competition with a known ligand. The low end stands for tighter binding, the high end for weaker binding.

In brackets after ≈: the same amount, converted by molar mass. Entries after “also recorded” stand apart in the source; their conditions may differ.

In one data set the target is hCA I (Homo sapiens, UniProt P00915). The data set can be described thus: hCA I inhibition assay (esterase activity). In kind it is biochemical. As to conditions: human erythrocyte hCA I.
In the next data set the target is hCA II (Homo sapiens, UniProt P00918). The experiment in a line: hCA II inhibition assay (esterase activity). In kind it is biochemical. As to conditions: for IC50 / Ki: human erythrocyte hCA II, esterase activity.
Data set [1] is described as follows: ABTS radical cation scavenging assay. As to conditions: for IC50 ABTS method: ABTS radical scavenging; for ABTS radical scavenging (λ734): absorbance at 734 nm, 30 μg/mL concentration; for antioxidant activity (in words): ABTS scavenging and Fe reduction, compared to BHT, BHA, α-tocopherol. Here is the method:
Antioxidant capacity was determined using the ABTS radical cation scavenging method ABTS and potassium persulfate (K2S2O8) were mixed in equal proportions and incubated at room temperature to generate the radical cation. The resulting solution was diluted with ethanol, and the absorbance of the control was adjusted to 0.928 ± 0.025 at 734 nm. Different concentrations of the compounds were prepared, added to test tubes, and adjusted with 0.2 mL of ethanol. To each tube, 0.8 mL of the ABTS radical solution was added. After incubation for 30 min, the absorbance of the remaining ABTS^•+ was measured at 734 nm.

Data set [2] in a line: Fe3+ reducing power assay (FRAP method). The following applies: absorbance at 700 nm, 30 μg/mL concentration. The procedure:
The ability of the carbamate compounds to reduce was evaluated using the FRAP assay. Various concentrations of the compounds were dissolved in deionized water to a final volume of 0.2 mL in test tubes. To each tube, 500 µL of potassium […] [K3Fe(CN)6] and 500 µL of phosphate buffer (0.2 M, pH 6.6) were added. The mixture was vortexed and incubated for 20 min at 50°C. Then, 500 µL of 10% trichloroacetic acid was added, and 500 µL of the upper layer of the solution was mixed with 100 µL of 0.1% FeCl3 and 500 µL of distilled water. The absorbance of the reducing effect was recorded using a spectrophotometer at 700 nm.

The test system of data set [3] is Escherichia coli ATCC 43895. The data set can be described thus: Disc diffusion, Escherichia coli. In kind it is cell-based. As to conditions: read-out: inhibitory zone diameter, B3 Escherichia coli; for zone of inhibition at 1000 µg/mL: ATCC43895, compounds at 1000 μg/mL, disc diameter 5 mm, 24 h. Here is the method:
All tests were conducted in triplicate.
For orientation: In agar diffusion tests the substance spreads into inoculated agar from a disc or well.

The subject of the next data set is L929 cells. The data set can be described thus: Cytotoxicity, WST-1 assay in L929 cells. In kind it is cell-based. The following applies: WST-1, 24 h exposure, 6.25-500 μg/ml. In general terms: Tetrazolium dyes change colour on reduction, which living cells bring about.
The test system of data set [4] is Bacillus subtilis ATCC 6633. The experiment in a line: Disc diffusion, Bacillus subtilis. As to conditions: for zone of inhibition at 1000 µg/mL: ATCC6633, 24 h, read-out: inhibitory zone diameter, B1 Bacillus subtilis.
For data set [5], the system named is Staphylococcus aureus ATCC 25923. The data set can be described thus: Disc diffusion, Staphylococcus aureus. The following applies: for zone of inhibition at 1000 µg/mL: ATCC25923, 24 h, read-out: inhibitory zone diameter, B2 Staphylococcus aureus.
In data set [6] the test system is Klebsiella pneumoniae ATCC 13883. The data set can be described thus: Disc diffusion, Klebsiella pneumoniae. As to conditions: for zone of inhibition at 1000 µg/mL: ATCC13883, 24 h, read-out: inhibitory zone diameter, B4 Klebsiella pneumonia.
Data set [7] deals with Candida albicans ATCC 10231. The experiment in a line: Disc diffusion, Candida albicans.
Data set [8] has as its system Yarrowia lipolytica ATCC 20460. The data set can be described thus: Disc diffusion, Yarrowia lipolytica.
Another data set concerns A549 cell line. The data set can be described thus: Anticancer activity, WST-1 assay in A549 cells. The following applies: WST-1, 24 h exposure, 6.25-500 μg/ml.
The mark [9] stands for this setting: positive control 10 µg disc^−1, disc diameter 5 mm.

Chain of hCA I (P00915 whole entry): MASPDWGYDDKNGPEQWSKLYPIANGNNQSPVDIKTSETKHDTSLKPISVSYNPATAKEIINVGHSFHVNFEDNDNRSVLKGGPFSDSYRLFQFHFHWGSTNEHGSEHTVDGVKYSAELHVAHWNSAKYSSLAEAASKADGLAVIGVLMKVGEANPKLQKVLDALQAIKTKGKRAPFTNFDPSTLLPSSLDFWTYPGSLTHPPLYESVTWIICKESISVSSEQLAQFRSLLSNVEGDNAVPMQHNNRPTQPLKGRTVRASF

On to `CC(C)OS(=O)(=O)N1C(=O)c2ccccc2C1(O)c1ccccc1` (centres unmarked) [2c, Isopropyl1‐hydroxy‐3‐oxo‐1‐phenylisoindoline‐2‐sulfonate], for which the IC50 against hCA I is 12.6 ± 0.37 nM; against hCA II, 13.02 ± 0.041 nM. In addition, the inhibition constant Ki on hCA I was 11.5 ± 4.18 nM; on hCA II, 9.32 ± 2.35 nM. For the same compound, the “IC50 ABTS method” value in data set [1] turned out to be 40.76 µg/mL. Moreover, in data set [1], the “ABTS radical scavenging (λ734)” value was 0.549 ± 0.049. In addition, the “Fe^3+-Fe^2+ reducing (λ700)” value in data set [2] is listed as 1.323 ± 0.133. In addition, the zone of inhibition at 1000 µg/mL in data set [3] was determined as 18 mm; in [4], 16 mm; in data set [5], 19 mm; in data set [6], 17 mm. Further, the “cell proliferation of L929 cells compared with control group (in words)” value in the data set with L929 cells is recorded as “increased cell proliferation”.

Consider `CCCCOS(=O)(=O)N1C(=O)c2ccccc2C1(O)c1ccccc1` (centres unmarked) [2d, Butyl1‐hydroxy‐3‐oxo‐1‐phenylisoindoline‐2‐sulfonate], for which the IC50 against hCA I was determined as 75.7 ± 1.21 nM; against hCA II, 86.37 ± 0.338 nM. Also, the Ki at hCA I amounted to 87.1 ± 35.2 nM; at hCA II, 251 ± 37.1 nM. Moreover, the “IC50 ABTS method” value in data set [1] was 99.00 µg/mL. The “ABTS radical scavenging (λ734)” value in data set [1] was 0.719 ± 0.032. Besides, in [2], the “Fe^3+-Fe^2+ reducing (λ700)” value is 1.278 ± 0.059. In addition, the zone of inhibition at 1000 µg/mL was determined as 13 mm in data set [3], 12 mm in data set [4], 14 mm in data set [5] and 12 mm in data set [6]. The “cell proliferation of L929 cells compared with control group (in words)” value in the data set on L929 cells is reported as “increased cell proliferation”.

In the case of `CCCOS(=O)(=O)N1C(=O)c2ccccc2C1(O)c1ccccc1` (centres unmarked) [2b, Propyl1‐hydroxy‐3‐oxo‐1‐phenylisoindoline‐2‐sulfonate], the IC50 at hCA I was 42 ± 1.35 nM; against hCA II, 231 ± 1 nM. The Ki was 49.5 ± 12.1 nM at hCA I and 160 ± 46.6 nM on hCA II. Besides, the “increase of activity on hCA II with n-propanol (2b) instead of n-butanol (2d)” value at hCA II (2b compared with 2d, Ki hCA II) is on record as 1.56 fold. In [1], the “IC50 ABTS method” value worked out at 173.25 µg/mL. For the same compound, in data set [1], the “ABTS radical scavenging (λ734)” value stood at 0.802 ± 0.072. In addition, the “Fe^3+-Fe^2+ reducing (λ700)” value in data set [2] was determined as 1.260 ± 0.079. Moreover, the zone of inhibition at 1000 µg/mL in [3] was 10 mm; in [4], 11 mm; in data set [5], 8 mm; in [6] it was 10 mm.

On to `O=C1c2ccccc2C(O)(c2ccccc2)N1S(=O)(=O)OC1CCCCC1` (centres unmarked) [2f, Cyclohexyl1‐hydroxy‐3‐oxo‐1‐phenylisoindoline‐2‐sulfonate], for which the concentration for half-maximal inhibition (IC50) against hCA I was determined as 11.2 ± 0.291 nM; at hCA II, 27.8 ± 0.17 nM. In addition, the Ki was 16.1 ± 4.14 nM on hCA I and 14.9 ± 3.25 nM on hCA II. In [1], the “IC50 ABTS method” value was 27.72 µg/mL. In addition, the “antioxidant activity (in words)” value in data set [1] is given as “highest antioxidant activity”. For the same compound, in [1], the “ABTS radical scavenging (λ734)” value came out at 0.426 ± 0.132. For the same compound, the “Fe^3+-Fe^2+ reducing (λ700)” value in data set [2] was found to be 1.485 ± 0.156. Moreover, the zone of inhibition at 1000 µg/mL in data set [3] was found to be 25 mm; in [7] (Candida albicans, ATCC10231, 24 h, read-out: inhibitory zone diameter, F1 Candida albicans), 19 mm; in data set [4] it was 20 mm; in data set [8] (Yarrowia lipolytica, ATCC20460, 24 h, read-out: inhibitory zone diameter, F2 Yarrowia lipolytica), 16 mm; in data set [5] it was 24 mm; in data set [6], 22 mm.

As to `Cc1cc(C(C)(C)C)c(O)c(C(C)(C)C)c1` [BHT, reference compound], in data set [1], the “IC50 ABTS method” value was 16.11 µg/mL (≈ 73.1 µM) and the “ABTS radical scavenging (λ734)” value was found to be 0.293 ± 0.094. Further, in [2], the “Fe^3+-Fe^2+ reducing (λ700)” value is given as 2.510 ± 0.111.

With `C[C@@H]1[C@H](O)[C@@H](C)/C=C/C=C/CC/C=C/C=C/C=C/C=C/C(O[C@H]2O[C@H](C)[C@@H](O)[C@H](N)[C@@H]2O)CC2O[C@](O)(CC(O)C(O)CCC(O)CC(O)CC(O)CC(=O)O[C@H]1C)CC(O)C2C(=O)O` (some centres unmarked) [Nystatin, reference compound], the “inhibitory zone diameter, F1 Candida albicans” value in data set [7] (setting [9]) came to 18 mm. For the same compound, in data set [8] (setting [9]), the “inhibitory zone diameter, F2 Yarrowia lipolytica” value stood at 15 mm.

For `Cc1c(C)c2c(c(C)c1O)CC[C@@](C)(CCC[C@H](C)CCC[C@H](C)CCCC(C)C)O2` [α‐Tokoferol, α‐tocopherol, reference compound], in [1], the “IC50 ABTS method” value came out at 18.23 µg/mL (≈ 42.3 µM) and the “ABTS radical scavenging (λ734)” value is 0.319 ± 0.101. Further, in data set [2], the “Fe^3+-Fe^2+ reducing (λ700)” value turned out to be 1.465 ± 0.284.

Regarding `CC(C)COS(=O)(=O)N1C(=O)c2ccccc2C1(O)c1ccccc1` (centres unmarked) [2e, Isobutyl1‐hydroxy‐3‐oxo‐1‐phenylisoindoline‐2‐sulfonate], the IC50 was 11.8 ± 0.132 nM at hCA I and 23.85 ± 0.152 nM on hCA II. The Ki at hCA I is 33.3 ± 15.1 nM; at hCA II it was 37.5 ± 14.7 nM. For the same compound, in data set [1], the “IC50 ABTS method” value was determined as 53.30 µg/mL. Moreover, the “ABTS radical scavenging (λ734)” value in data set [1] stood at 0.624 ± 0.040. The “Fe^3+-Fe^2+ reducing (λ700)” value in data set [2] was determined as 1.316 ± 0.023. Moreover, the zone of inhibition at 1000 µg/mL in data set [3] was found to be 14 mm; in data set [4] it was 10 mm; in data set [5], 13 mm; in data set [6], 11 mm.

Turning to `CC1(C)S[C@@H]2[C@H](NC(=O)[C@H](N)c3ccccc3)C(=O)N2[C@H]1C(=O)O` [Ampicillin, reference compound], the zone of inhibition at 10 µg/disc is 20 mm in data set [3] (ATCC43895, positive control 10 µg disc^−1, disc diameter 5 mm); 18 mm in data set [4] (ATCC6633, read-out: inhibitory zone diameter, B1 Bacillus subtilis); 21 mm in [5] (ATCC25923, read-out: inhibitory zone diameter, B2 Staphylococcus aureus); 19 mm in [6] (ATCC13883, read-out: inhibitory zone diameter, B4 Klebsiella pneumonia).

For `CCOS(=O)(=O)N1C(=O)c2ccccc2C1(O)c1ccccc1` (centres unmarked) [2a, Ethyl1‐hydroxy‐3‐oxo‐1‐phenylisoindoline‐2‐sulfonate], the IC50 against hCA I was determined as 24.3 ± 1.98 nM; against hCA II, 28.84 ± 0.151 nM. In addition, the affinity on hCA I corresponds to a Ki of 22 ± 9.21 nM. Moreover, in [1], the “IC50 ABTS method” value amounted to 231.00 µg/mL. Also, the “antioxidant activity (in words)” value in data set [1] is reported as “lowest activity”. Further, the “ABTS radical scavenging (λ734)” value in data set [1] is 0.835 ± 0.024. For the same compound, in [2], the “Fe^3+-Fe^2+ reducing (λ700)” value is recorded as 1.168 ± 0.058. Besides, the zone of inhibition at 1000 µg/mL in data set [3] stood at 9 mm; in data set [4] it was 7 mm; in data set [5], 7 mm; in data set [6], 8 mm. In addition, the “cell proliferation of L929 cells compared with control group (in words)” value in the data set on L929 cells is given as “increased cell proliferation”. The “anticancer activity against A549 cells (in words)” value with A549 cell line is recorded as “dose‐dependent anticancer activity; also recorded: demonstrated inhibitory effects at high doses”.

For the compound `COc1ccc(O)c(C(C)(C)C)c1` [BHA, reference compound], in data set [1], the “IC50 ABTS method” value amounted to 12.83 µg/mL (≈ 71.2 µM) and the “ABTS radical scavenging (λ734)” value is reported as 0.201 ± 0.040. For the same compound, the “Fe^3+-Fe^2+ reducing (λ700)” value in data set [2] amounted to 2.625 ± 0.241.
